Molecular target: Tie2 (Homo sapiens, UniProt Q02763)
Experiment: Tie2 ELISA assay (cellular Tie2 autophosphorylation)
Format: cell-based
Set-up: expressed in transfected cells; host or cells: CHO (CHO Tie2/DHFR)
Conditions: CHO cells stably transfected with Tie2, stimulated by angiopoietin-2; Tie2 autophosphorylation by sandwich-ELISA; read-out: Tie 2 activity (assay 1)
Experimental: Cellular activity of compounds of the present invention as inhibitors of Tie2 kinase activity was measured employing a Tie2 ELISA assay as described in the following paragraphs. Herein CHO cell-cultures, which are stably transfected by known techniques with Tie2 using DHFR deficiency as selection marker, are stimulated by angiopoietin-2. The specific autophosphorylation of Tie2 receptors is quantified with a sandwich-ELISA using anti-Tie2 antibodies for catch and anti-phosphotyrosine antibodies coupled to HRP for detection.
• 96 well tissue culture plate, sterile, Greiner • 96 well FluoroNunc plate MaxiSorp Surface C, Nunc • 96 well plate polypropylene for compound dilution in DMSO • CHO Tie2/DHFR (transfected cells) • PBS−; PBS++, DMSO • MEM alpha Medium with Glutamax-I without Ribonucleosides and Deoxyribonucleosides (Gibco #32561-029) • with 10% FCS after dialysis! and 1% PenStrep • Lysis buffer: 1 Tablet “Complete” protease inhibitor • 1 cap Vanadate (1 mL>40 mg/mL; working solution 2 mM) • ad 50 mL with Duschl-Puffer • pH 7.6 • Anti-Tie2-antibody 1:425 in Coating Buffer pH 9.6 • Stock solution: 1.275 mg/mL>working.: 3 μg/mL • PBST: 2 bottles PBS (10×)+10 ml Tween, fill up with VE-water • RotiBlock 1:10 in VE-water • Anti-Phosphotyrosine HRP-Conjugated 1:10000 in 3% TopBlock • 3% TopBlock in PBST • BM Chemiluminescence ELISA Substrate (POD) • solution B 1:100 solution A • SF9 cell culture medium • Ang2-Fc in SF9 cell culture medium
• Dispense 5×10^4 cells/well/98 μL in 96 well tissue culture plate • Incubate at 37° C./5% CO2 • After 24 h add compounds according to desired concentrations • Add also to control and stimulated values without compounds 2 μL DMSO • And mix for a few min at room temperature • Add 100 μL Ang2-Fc to all wells except control, which receives insect medium • Incubate 20 min at 37° C. • Wash 3× with PBS++ • Add 100 μl Lysis buffer/well and shake a couple of min at room temperature • Store lysates at […] before utilizing for the ELISA
• Coat 96 well FluoroNunc Plate MaxiSorp Surface C with anti-Tie2 mAb 1:425 in Coating buffer pH 9.6; 100 μL/well overnight at 4° C. • Wash 2× with PBST • Block plates with 250 μL/well RotiBlock 1:10 in VE-water • Incubate for 2 h at room temperature or overnight at 4° C. shaking • Wash 2× in PBST • Add thawed lysates to wells and incubate overnight shaking at 4° C. • Wash 2× with PBST • Add 100 μL/well anti-Phosphotyrosine HRP-Conjugated 1:10000 in 3% TopBlock (3% TopBlock in PBST) and incubate overnight under shaking • Wash 6× with PBST • Add 100 μL/well BM Chemiluminescence ELISA Substrate (POD) solutions 1 und 2 (1:100) • Determine luminescence with the LumiCount. Assay 2: Tie-2-Kinase HTRF-Assay without Kinase Preactivation

Tie2, sequence (Q02763 23-1124, species assumed): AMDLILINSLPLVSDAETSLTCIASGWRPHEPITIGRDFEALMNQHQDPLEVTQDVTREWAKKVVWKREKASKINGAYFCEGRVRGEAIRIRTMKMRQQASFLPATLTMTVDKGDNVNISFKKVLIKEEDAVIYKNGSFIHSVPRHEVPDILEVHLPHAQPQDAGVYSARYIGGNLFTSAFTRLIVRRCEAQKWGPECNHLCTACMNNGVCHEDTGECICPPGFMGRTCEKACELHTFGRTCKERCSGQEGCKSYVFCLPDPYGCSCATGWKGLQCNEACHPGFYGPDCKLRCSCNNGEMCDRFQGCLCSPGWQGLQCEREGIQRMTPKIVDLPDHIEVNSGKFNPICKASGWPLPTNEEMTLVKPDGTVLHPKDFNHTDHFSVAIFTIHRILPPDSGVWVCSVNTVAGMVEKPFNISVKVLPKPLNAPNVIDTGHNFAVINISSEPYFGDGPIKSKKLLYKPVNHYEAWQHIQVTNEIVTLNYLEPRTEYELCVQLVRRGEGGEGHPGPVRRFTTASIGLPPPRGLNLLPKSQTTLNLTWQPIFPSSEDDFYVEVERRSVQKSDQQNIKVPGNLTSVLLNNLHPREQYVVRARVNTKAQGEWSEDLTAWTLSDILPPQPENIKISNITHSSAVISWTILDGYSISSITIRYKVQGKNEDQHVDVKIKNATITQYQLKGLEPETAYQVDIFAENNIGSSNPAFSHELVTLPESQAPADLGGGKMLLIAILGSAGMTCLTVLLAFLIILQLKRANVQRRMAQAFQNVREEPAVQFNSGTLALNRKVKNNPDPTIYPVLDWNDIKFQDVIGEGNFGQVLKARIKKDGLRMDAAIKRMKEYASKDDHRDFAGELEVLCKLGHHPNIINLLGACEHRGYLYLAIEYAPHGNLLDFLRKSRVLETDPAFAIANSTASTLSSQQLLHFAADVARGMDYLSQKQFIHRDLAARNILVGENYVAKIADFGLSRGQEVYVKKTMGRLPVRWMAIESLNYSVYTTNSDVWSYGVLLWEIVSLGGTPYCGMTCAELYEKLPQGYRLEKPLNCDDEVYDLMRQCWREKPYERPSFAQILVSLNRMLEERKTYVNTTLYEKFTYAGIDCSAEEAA

Compound	IC50
O=C(Nc1ccc(-c2cncc3c2cnn3CCO)cc1F)Nc1cc(C(F)(F)F)ccc1F [Example 8.1, 1-{2-Fluoro-4-[1-(2-hydroxy-ethyl)-1H-pyrazolo[3,4-c]pyridin-4-yl]-phenyl}-3-(2-fluoro-5-trifluoromethyl-phenyl)-urea]	< 501 nM
Cn1ncc2c(-c3ccc(NC(=O)Nc4cccc(C(F)(F)F)c4)cc3)cncc21 [Example 1.4, 1-[4-(1-Methyl-1H-pyrazolo[3,4-c]pyridin-4-yl)-phenyl]-3-(3-trifluoromethyl-phenyl)-urea]	< 501 nM
O=C(Nc1cccc(C(F)(F)F)c1)Nc1ccc(-c2cncc3c2cnn3CCO)cc1F [Example 8.5, 1-{2-Fluoro-4-[1-(2-hydroxy-ethyl)-1H-pyrazolo[3,4-c]pyridin-4-yl]-phenyl}-3-(3-trifluoromethyl-phenyl)-urea]	< 501 nM
CCc1cccc(NC(=O)Nc2ccc(-c3cncc4c3cnn4C)cc2)c1 [Example 1.5, 1-(3-Ethyl-phenyl)-3-[4-(1-methyl-1H-pyrazolo[3,4-c]pyridin-4-yl)-phenyl]-urea]	< 501 nM
CN1CCN(Cc2ccc(NC(=O)Nc3ccc(-c4cncc5c4cnn5C)cc3)cc2C(F)(F)F)CC1 [Example 6.4, 1-[4-(4-Methyl-piperazin-1-ylmethyl)-3-trifluoromethyl-phenyl]-3-[4-(1-methyl-1H-pyrazolo[3,4-c]pyridin-4-yl)-phenyl]-urea]	< 501 nM
CN(C(=O)Nc1cccc(C(F)(F)F)c1)c1ccc(-c2cncc3c2cnn3C)cc1 [Example 6.1, 1-Methyl-1-[4-(1-methyl-1H-pyrazolo[3,4-c]pyridin-4-yl)-phenyl]-3-(3-trifluoromethyl-phenyl)-urea]	501 to 1000 nM
O=C(Nc1ccc(-c2cncc3c2cnn3CCO)cc1)Nc1cc(C(F)(F)F)ccc1F [Example 8.2, 1-(2-Fluoro-5-trifluoromethyl-phenyl)-3-{4-[1-(2-hydroxy-ethyl)-1H-pyrazolo[3,4-c]pyridin-4-yl]-phenyl}-urea]	< 501 nM
CCn1ncc2c(-c3ccc(NC(=O)Nc4cc(C(F)(F)F)ccc4F)cc3)cncc21 [Example 10.5, 1-[4-(1-Ethyl-1H-pyrazolo[3,4-c]pyridin-4-yl)-phenyl]3-(2-fluoro-5-trifluoromethyl-phenyl)-urea]	< 501 nM
Cn1ncc2c(-c3ccc(NC(=O)Nc4cccc(C(F)(F)F)c4)c(F)c3)cncc21 [Example 3.1, 1-[2-Fluoro-4-(1-methyl-1H-pyrazolo[3,4-c]pyridin-4-yl)-phenyl]-3-(3-trifluoromethyl-phenyl)-urea]	< 501 nM
Cc1ccc(F)c(NC(=O)Nc2ccc(-c3cncc4c3cnn4C)cc2)c1 [Example 1.3, 1-(2-Fluoro-5-methyl-phenyl)-3-[4-(1-methyl-1H-pyrazolo[3,4-c]pyridin-4-yl)-phenyl]-urea]	< 501 nM
Cn1ncc2c(-c3ccc(NC(=O)Nc4cc(C(F)(F)F)ccc4F)cc3)cncc21 [Example 1.2, 1-(2-Fluoro-5-trifluoromethyl-phenyl)-3-[4-(1-methyl-1H-pyrazolo[3,4-c]pyridin-4-yl)-phenyl]-urea]	< 501 nM
Cn1ncc2c(-c3ccc(NC(=O)Nc4cc(C(F)(F)F)ccc4F)c(F)c3)cncc21 [Example 6.3, 1-[2-Fluoro-4-(1-methyl-1H-pyrazolo[3,4-c]pyridin-4-yl)-phenyl]-3-(2-fluoro-5-trifluoromethyl-phenyl)-urea]	< 501 nM

Now from value to molecule:

IC50	Compound
< 501 nM	Cn1ncc2c(-c3ccc(NC(=O)Nc4cc(C(C)(C)C)nn4-c4cncc(F)c4)cc3)cncc21 [Example 15.12, 1-[5-tert-Butyl-2-(5-fluoro-pyridin-3-yl)-2H-pyrazol-3-yl]-3-[4-(1-methyl-1H-pyrazolo[3,4-c]pyridin-4-yl)-phenyl]-urea]
< 501 nM	CCn1ncc2c(-c3ccc(NC(=O)Nc4cc(C(F)(F)F)ccc4F)c(F)c3)cncc21 [Example 11.2, 1-[4-(1-Ethyl-1H-pyrazolo[3,4-c]pyridin-4-yl)-2-fluoro-phenyl]-3-(2-fluoro-5-trifluoromethyl-phenyl)-urea]
< 501 nM	Cn1ncc2c(-c3ccc(NC(=O)Nc4cc(C(C)(C)C)nn4-c4ccncc4)cc3)cncc21 [Example 15.10, 1-(5-tert-Butyl-2-pyridin-4-yl-2H-pyrazol-3-yl)-3-[4-(1-methyl-1H-pyrazolo[3,4-c]pyridin-4-yl)-phenyl]-urea]
< 501 nM	CCn1ncc2c(-c3ccc(NC(=O)Nc4cccc(C(F)(F)F)c4)c(F)c3)cncc21 [Example 11.1, 1-[4-(1-Ethyl-1H-pyrazolo[3,4-c]pyridin-4-yl)-2-fluoro-phenyl]-3-(3-trifluoromethyl-phenyl)-urea]
< 501 nM	CN(C)CCN(C)c1ccc(C(F)(F)F)cc1NC(=O)Nc1ccc(-c2cncc3c2cnn3C)cc1 [Example 13.13, 1-{2-[(2-Dimethylamino-ethyl)-methyl-amino]-5-trifluoromethyl-phenyl}-3-[4-(1-methyl-1H-pyrazolo[3,4-c]pyridin-4-yl)-phenyl]-urea]
< 501 nM	Cn1ncc2c(-c3ccc(NC(=O)Nc4cc(C(C)(C)C)nn4-c4ccc(F)cc4)cc3)cncc21 [Example 15.7, 1-[5-tert-Butyl-2-(4-fluoro-phenyl)-2H-pyrazol-3-yl]-3-[4-(1-methyl-1H-pyrazolo[3,4-c]pyridin-4-yl)-phenyl]-urea]
< 501 nM	CN(C)c1ccc(C(F)(F)F)cc1NC(=O)Nc1ccc(-c2cncc3c2cnn3C)cc1 [Example 13.11, 1-(2-Dimethylamino-5-trifluoromethyl-phenyl)-3-[4-(1-methyl-1H-pyrazolo[3,4-c]pyridin-4-yl)-phenyl]-urea]
< 501 nM	COCCn1ncc2c(-c3ccc(NC(=O)Nc4cccc(C(F)(F)F)c4)cc3)cncc21 [Example 12.1, 1-{4-[1-(2-Methoxy-ethyl)-1H-pyrazolo[3,4-c]pyridin-4-yl]-phenyl}-3-(3-trifluoromethyl-phenyl)-urea]
< 501 nM	Cn1ncc2c(-c3ccc(NC(=O)Nc4cc(C(C)(C)C)nn4-c4cncc(F)c4)c(F)c3)cncc21 [Example 15.13, 1-[5-tert-Butyl-2-(5-fluoro-pyridin-3-yl)-2H-pyrazol-3-yl]-3-[2-fluoro-4-(1-methyl-1H-pyrazolo[3,4-c]pyridin-4-yl)-phenyl]-urea]
< 501 nM	Cn1nc(C(C)(C)C)cc1NC(=O)Nc1ccc(-c2cncc3c2cnn3C)cc1 [Example 14.3, 1-(5-tert-Butyl-2-methyl-2H-pyrazol-3-yl)-3-[4-(1-methyl-1H-pyrazolo[3,4-c]pyridin-4-yl)-phenyl]-urea]
< 501 nM	Cn1ncc2c(-c3ccc(NC(=O)Nc4cc(C(C)(C)C)nn4-c4ccccc4)cc3)cncc21 [Example 13.4, 1-(5-tert-Butyl-2-phenyl-2H-pyrazol-3-yl)-13-[4-(1-methyl-1H-pyrazolo[3,4-c]pyridin-4-yl)-phenyl]-urea]
< 501 nM	CCn1ncc2c(-c3ccc(NC(=O)Nc4cc(C)ccc4F)c(F)c3)cncc21 [Example 11.3, 1-[4-(1-Ethyl-1H-pyrazolo[3,4-c]pyridin-4-yl)-2-fluoro-phenyl]-3-(2-fluoro-5-methyl-phenyl)-urea]
< 501 nM	COCCn1ncc2c(-c3ccc(NC(=O)Nc4cc(C)ccc4F)cc3)cncc21 [Example 12.3, 1-(2-Fluoro-5-methyl-phenyl)-3-{4-[1-(2-methoxy-ethyl)-1H-pyrazolo[3,4-c]pyridin-4-yl]-phenyl}-urea]
< 501 nM	COc1cccc(-n2nc(C(C)(C)C)cc2NC(=O)Nc2ccc(-c3cncc4c3cnn4C)cc2)c1 [Example 15.5, 1-[5-tert-Butyl-2-(3-methoxy-phenyl)-2H-pyrazol-3-yl]-3-[4-(1-methyl-1H-pyrazolo[3,4-c]pyridin-4-yl)-phenyl]-urea]
< 501 nM	Cn1ncc2c(-c3ccc(NC(=O)Nc4cc(C(C)(C)C)on4)cc3)cncc21 [Example 13.2, 1-(5-tert-Butyl-isoxazol-3-yl)-3-[4-(1-methyl-1H-pyrazolo[3,4-c]pyridin-4-yl)-phenyl]-urea]

Source: patent publication US20090062273A1, “3-H-pyrazolopyridines and salts thereof, pharmaceutical compositions comprising same, methods of preparing same and uses of same” (priority 2006, published 2009)
